# Data reported in patent publication US12274761B2, “Compositions and methods to detect GLUA1 in brain and to identify the presence of GLUA1-mediated PTSD” (Neurovation Labs, Inc., priority 2016, dated 2025).
# “Also recorded” adds a separate entry of the source.
# Tests used:
# [1] = test system: Stress-Enhanced Fear Learning (SEFL); experiment: Stress-Enhanced Fear Learning (SEFL), a rodent model of PTSD: freezing in Context B; type: in vivo, rats
# Excerpt: FIG. 1A illustrates an experimental design for Stress-Enhanced Fear Learning (SEFL), a rodent model of PTSD. FIG. 2A illustrates an abbreviated SEFL experimental design. […] FIG. 3A illustrates a SEFL experimental design. […] FIG. 2C depicts representative Western blot images of GluA1 and GAPDH from the BLA of stressed/MSO and stressed/ASO rats. FIG. 2D depicts mean GluA1: GAPDH optical density ratios (±SEM) from the BLA of stressed/MSO and stressed/ASO rats. […] FIG. 2E depicts mean (±SEM) percent freezing in Context B on Day 3. […] FIG. 3C depicts mean freezing (±SEM) in Context B on Day 3.
# [2] = test system: GluA2 subunit of the AMPAR; experiment: Western blot of GluA2 protein in the BLA after SEFL trauma; type: in vivo; conditions: measured three weeks after the trauma; stressed and unstressed rats
# Description: (§1) FIGS. 1B-D depict representative Western blot images and graphs of relative optical density ratios (±standard error of the mean (SEM)) of GluA1, GluA2, and GluN1, respectively, and a glyceraldehyde 3-phosphate dehydrogenase (GAPDH) control. […] Glutamate receptor protein changes were measured three weeks after the initial trauma via Western blotting. While the GluA2 subunit of the AMPAR and the GluN1 subunit of the N-methyl-D-aspartate receptor (NMDAR) remained unchanged after trauma, GluA1 increased substantially.
# (§2) FIG. 1A illustrates an experimental design using SEFL (7, 8). Protein levels were measured using Western blot, an analytical technique to detect specific proteins in tissue samples.
# FIG. 1C depicts representative Western blot images of GluA2 and GAPDH from the BLA of stressed and unstressed rats, measured three weeks after the trauma.
# [3] = test system: GluA1 protein in the basolateral amygdala (BLA); experiment: Western blot of GluA1 protein in the BLA after SEFL trauma; type: in vivo; conditions: metyrapone given before the trauma, measured three weeks after the trauma, stressed rats
# Description: FIG. 1A illustrates an experimental design for Stress-Enhanced Fear Learning (SEFL), a rodent model of PTSD.
# as §1, §2
# FIG. 1B depicts representative Western blot images of GluA1 and a control, GAPDH, from the BLA of stressed and unstressed rats, measured three weeks after the trauma.
# Because GluA1 increases are observed weeks after the trauma, post-trauma GluA1 ASO infusions directly into the BLA prevented sensitized fear responses usually observed in SEFL (FIGS. 2A-E) (5). […] FIG. 2C depicts representative Western blot images of GluA1 and GAPDH from the BLA of stressed/MSO and stressed/ASO rats. […]
# [4] = test system: GluN1 subunit of the N-methyl-D-aspartate receptor (NMDAR); experiment: Western blot of GluN1 protein in the BLA after SEFL trauma; type: in vivo; conditions: measured three weeks after the trauma; stressed and unstressed rats
# Description: as §1, §2
# FIG. 1D depicts representative Western blot images of GluN1 and GAPDH from the BLA of stressed and unstressed rats, measured three weeks after the trauma.
SMILES,"percent freezing in Context B on Day 3 (sensitized fear, SEFL) ([1]; intra-BLA infusion after the 15-shock stressor (post-trauma), compared with stressed controls, hydrobromide)",GluA2: GAPDH optical density ratios in the BLA (GluA2 levels) [2],GluA1: GAPDH optical density ratios in the BLA [3],GluA1: GAPDH optical density ratios in the BLA ([3]; listed as metyrapone),GluN1: GAPDH optical density ratios in the BLA (GluN1 levels) [4],SEFL (stress-enhanced fear learning) ([1]; given before the trauma)
"Br.C[N+](C)(C)CCCCCNCC12CC3CC(CC(C3)C1)C2.[Br-] [IEM-1460, N,N,H,-Trimethyl-5-[(tricyclo[3.3.1.13,7]dec-1-ylmethyl)amino]-1-pentanaminiumbromide hydrobromide]",significantly reduces freezing in Context B; also recorded: attenuate SEFL,,,,,
CC(C)(C(=O)c1cccnc1)c1cccnc1 [Metyrapone],,Neither stress nor metyrapone had an effect on GluA2 levels,prevented GluA1 increases and conferred levels to that of unstressed controls,GluA1 protein levels in the BLA were significantly higher in stressed rats than in unstressed rats and metyrapone-treated rats,Neither stress nor metyrapone had an effect on GluN1 levels,effectively preventing SEFL
